The values below are quoted from earlier work in US20250152537A1, “COMPOSITIONS AND METHODS FOR THE TREATMENT OF HUMAN IMMUNODEFICIENCY VIRUS” (PROTHIONE LLC, priority 2022, published 2025).

For this data set the following is noted: not told.

Take `N[C@@H](CCC(=O)N[C@@H](CS)C(=O)NCC(=O)O)C(=O)O` [GSH, glutathione]: the membrane permeability result is recorded as “membrane-impermeable”.
